# Measured values taken from US12544356B2, “Combination of a chromene compound and a second active agent” (EUCLISES PHARMACEUTICALS, INC., priority 2016, dated 2026).
# How the values were obtained:
# [1] = test system: CT26.WT murine colon carcinomas; assay: CT26 tumor volume, Compound A01 vs celecoxib (Example 6); format: in vivo, Female Harlan Balb/c mice (BALB/cAnNHsd)
# Procedure: (§1) CT26 murine colon carcinoma cells were prepared as in Example 2. Female Harlan Balb/c mice (BALB/cAnNHsd) were inoculated with 5×10^5 CT26 cells suspended in PBS (200 μL) subcutaneously high in the axilla (just under the fore limb). All mice were sorted into study groups based on caliper measurement estimation of tumor burden on Day 8 when the mean tumor burden for all animals was approximately 79 mm^3 (range of group means, 75-83 mm^3).
# [2] = test system: HT-29 xenograft colon carcinoma model; assay: HT-29 xenograft tumor volume, Compound A01 vs celecoxib (Example 5); format: in vivo, CB17SCID mice; conditions: 10 mg/kg oral daily
# Procedure: (§2) HT-29 cells were prepared and implanted by standard methods using the same procedure as Example 1.
# (§3) 42 CB17SCID mice were implanted with 2.5×10^6 HT-29 cells.
# (§4) Mouse weight and tumor volume measurements were taken on days 0, 3, 6, 9, 12, 15, 18, 21, and 22 following randomization. After 22 days dosing, the blood from each animal was collected at 2 hours and 6 hours post dose.
# prostaglandin E2 (PGE2) = assay: CT26 tumoral PGE-2 (Example 6); format: in vivo, Female Harlan Balb/c mice (BALB/cAnNHsd); conditions: 10 mg/kg (Group 8)
# Procedure: as §1
# PGE-2 = assay: Tumoral PGE-2 in HT-29 tumors (Example 5); format: in vivo, CB17SCID mice; conditions: HT-29 tumor, day 24; 10 mg/kg
# Procedure: as §2, §3, §4
# [3] = test system: HT-29 xenograft murine colon carcinoma model; assay: HT-29 xenograft tumor growth, Compound A01 with erlotinib (Example 1); format: in vivo, CB17SCID male mice; conditions: for Tumor Volume: erlotinib 50 mg/kg oral daily
# Procedure: HT-29 cells were cultured in medium for one week. Following digestion cells were centrifuged for 3-5 minutes at 800-1500 rpm. Cells were washed with PBS and centrifuged again under the same condition. Cells were then suspended in PBS to a final concentration of […]. 200 μL of the HT-29 cell suspension were subcutaneously injected into the mice left forelimb axillary (2.5×10^6 HT-29 cells per mouse).
# (§5) 48 CB17SCID male mice were implanted with 2.5×10^6 HT29 cells. Growth of the tumor was calculated for each animal using a caliper and the equation: V=π×ab^2/6.
# (§6) Mouse weight and tumor volume measurements were taken on days 0, 3, 6, 9, 12, 15, 18, 21, and 22 following randomization.
# [4] = Plasma concentration of Compound A01 and erlotinib (Example 1); format: in vivo, CB17SCID male mice; conditions: male, CB17SCID, mouse, plasma, oral, 50 mg/kg
# Procedure: as §5, §6
# PGE2 = assay: Intratumoral concentration of PGE2 in HT-29 tumors (Example 1); format: in vivo, CB17SCID male mice; conditions: HT-29 tumor, day 24; erlotinib 50 mg/kg
# Procedure: as §5, §6
# [5] = Body weight in HT-29 xenograft study (Example 1); format: in vivo, CB17SCID male mice; conditions: erlotinib 50 mg/kg oral daily
# Procedure: as §5, §6
# [6] = Intratumoral concentration of Compound A01 and erlotinib (Example 1); format: in vivo, CB17SCID male mice; conditions: male, CB17SCID, mouse, tumor (HT-29 xenograft), oral, 50 mg/kg
# Procedure: as §5, §6
structure (smiles),measurement,setting,value
"Cc1ccc(-c2cc(C(F)(F)F)nn2-c2ccc(S(N)(=O)=O)cc2)cc1 [Celecoxib, celecoxib, reference compound]",CT26 Tumor Volume,"[1]; Day 8, 10 mg/kg",79 ± 4 mm^3
same,CT26 Tumor Volume,"[1]; Day 8, 30 mg/kg",76 ± 5 mm^3
same,CT26 Tumor Volume,"[1]; Day 10, 10 mg/kg",134 ± 11 mm^3
same,CT26 Tumor Volume,"[1]; Day 10, 30 mg/kg",131 ± 17 mm^3
same,CT26 Tumor Volume,"[1]; Day 13, 10 mg/kg",369 ± 42 mm^3
same,CT26 Tumor Volume,"[1]; Day 13, 30 mg/kg",415 ± 66 mm^3
same,CT26 Tumor Volume,"[1]; Day 15, 10 mg/kg",594 ± 84 mm^3
same,CT26 Tumor Volume,"[1]; Day 15, 30 mg/kg",685 ± 93 mm^3
same,CT26 Tumor Volume,"[1]; Day 17, 10 mg/kg",904 ± 92 mm^3
same,CT26 Tumor Volume,"[1]; Day 17, 30 mg/kg",1046 ± 144 mm^3
same,Tumor Volume,[2]; Day 0,67.9 mm^3
same,Tumor Volume,[2]; Day 3,81.8 mm^3
same,Tumor Volume,[2]; Day 6,143.4 mm^3
same,Tumor Volume,[2]; Day 9,244.5 mm^3
same,Tumor Volume,[2]; Day 12,285.5 mm^3
same,Tumor Volume,[2]; Day 15,380.9 mm^3
same,Tumor Volume,[2]; Day 18,541.2 mm^3
same,Tumor Volume,[2]; Day 21,736.1 mm^3
same,Tumor Volume,[2]; Day 22,803.4 mm^3
same,Mean PGE-2 Concentration (CT26 tumoral),prostaglandin E2 (PGE2),1140 ng/g
same,Mean PGE-2 (tumoral),PGE-2,233.3 ± 267.2 ng/g
"C#Cc1cccc(Nc2ncnc3cc(OCCOC)c(OCCOC)cc23)c1 [Erlotinib, erlotinib, reference compound]",Tumor Volume,[3]; Day 0,73.7 mm^3
same,Tumor Volume,[3]; Day 3,156.9 mm^3
same,Tumor Volume,[3]; Day 6,192.0 mm^3
same,Tumor Volume,[3]; Day 9,241.0 mm^3
same,Tumor Volume,[3]; Day 12,299.1 mm^3
same,Tumor Volume,[3]; Day 15,394.5 mm^3
same,Tumor Volume,[3]; Day 18,641.1 mm^3
same,Tumor Volume,[3]; Day 21,691.4 mm^3
same,Tumor Volume,[3]; Day 22,774.8 mm^3
same,suppression of tumor growth compared to vehicle,[3]; erlotinib alone (50 mg/kg),38%
same,concentration at 2 h,[4],3340 ± 1590 ng/mL
same,concentration at 6 h,[4],1260 ± 520 ng/mL
same,Intratumoral concentration of PGE2 (mean ± SD),PGE2,160.6 ± 89.5 µg/g
same,Body weight,[5]; Day 0,22.4 g
same,Body weight,[5]; Day 3,22.4 g
same,Body weight,[5]; Day 15,20.5 g
same,Body weight,[5]; Day 21,21.0 g
same,concentration at 24 day,[6],< 80000 ng/g
